From patent US6667336B2, “GlyT-1 inhibitors” (NPS Allelix Corp., priority 2002, dated 2003)
Values joined by “and” are separate entries in the source; they are usually repeats but may differ in a detail not shown here. Identical values can stand only once.

Test system: male CD-1 mice
Test: 5 day chronic oral dosing toxicity study in mice (clinical signs)
Format: in vivo
Parameters: key to Clinical signs (observation code), Day 1, 24 hours / Clinical signs (observation code), Day 2, 24 hours / Clinical signs (observation code), Day 3, 24 hours / Clinical signs (observation code), Day 4, 24 hours / Clinical signs (observation code), Day 5, 24 hours / Clinical signs (observation code), Day 1, 4 hours / Clinical signs (observation code), Day 2, 4 hours / Clinical signs (observation code), Day 3, 4 hours / Clinical signs (observation code), Day 4, 4 hours / Clinical signs (observation code), Day 5, 4 hours: 0: Appeared Normal; 1: Activity (inc./dec.); 2: Sedation/Lethargy; 3: Piloerection; 4: Stereotypy; 5: Soft Stool; 6: Chromodacryorrhea; 7: Epistaxis; 8: Cyanosis; 9: Flaccidity; 10: Respiration; 11: Hunched Posture; 12: Enophthalmia; 13: Exophthalmia; 14: Palpabral Ptosis; 15: Loss of Righting; 16: Chromaturia; 17: Salivation; 18: Lacrimation; 19: Miosis; 20: Mydriasis; 21: Rigidity; 22: Ataxia; 23: Tremors; 24: Convulsions; 25: Catalepsy; 26: Lateral Recumbency; 27: Death
Conditions: for Clinical signs (observation code), Day 1, 4 hours / Clinical signs (observation code), Day 1, 24 hours / Clinical signs (observation code), Day 2, 4 hours / Clinical signs (observation code), Day 2, 24 hours / Clinical signs (observation code), Day 3, 4 hours / Clinical signs (observation code), Day 3, 24 hours / Clinical signs (observation code), Day 4, 4 hours / Clinical signs (observation code), Day 4, 24 hours / Clinical signs (observation code), Day 5, 4 hours / Clinical signs (observation code), Day 5, 24 hours: one line per animal; for Toxicity profile in comparison (compounds of formula 1 vs other GlyT1 inhibitors of similar potency): 5 day oral dosing in mice, tables 1-18
Procedure: This example illustrated a 5 day chronic oral dosing toxicity study with GlyT1 inhibitors. […] Behavioral observations (clinical signs) and body weights were recorded daily for all compounds tested. Male CD-1 mice were purchased from Charles River Labs (Kingston, N.Y.). The animals weighed between 20-25 grams upon arrival. Animals were acclimatized in a temperature/humidity (72° ±5° F./50%±5%) controlled vivarium, with a common 12 hour light/dark cycle (Lights on 0700 hrs) for 5 days prior to test. All animals were allowed food (Purina Labdiete® Rodent chow # 5001) and water (supplied by Elizabethtown Water Company) ad libitum during the acclimation period and throughout the study. On the day prior to test initiation animals were randomly assigned to groups: All animals chosen for test weighed at least 20 grams and appeared in good condition. Each animal was dosed once daily for 5 days. Animals remained on site for a 3 day recovery period following the chronic dosing period.
A stock concentration of each test compound was prepared fresh on the day of study initiation. Aliquots were diluted to the needed concentrations for daily dosing. Stock solutions were kept in a refrigerator when not in use. Each compound was dissolved in a small amount of distilled water. One equivalent of sodium hydroxide (2 N) may have been added to aid in dissolution of each test agent. Vehicle was then added quantum sufficiat to give the final volume. Final volumes were adjusted to reflect percent free base when appropriate. The vehicle used in this experiment was Hydroxypropyl-β-cyclodextrine (HPCD) Acros, lot 011849601, dissolved in distilled water to form a 10% weight/volume concentration. The pH was adjusted, using sodium hydroxide (2 N), to equal that of the test agents (usually between 8 to 10). All prepared test compounds were either in solution, and clear, or in suspension, and slightly cloudy. Suspensions were mixed immediately prior to use.
All animals were administered either test compound or vehicle Per Os (PO) via 21 gauge gavage needles, in volumes of 10.0 ml/kg. Daily body weights were used to determine individual dosing volumes. All test compounds were weighed on a Denver Instruments analytical balance (model # A-250). Animals were weighed on a top loading Ohaus portable balance model # LS2000.
Animals were assessed for overt behaviors (clinical signs) immediately following administration of test agents, then again at 4 and 24 hours. Animals were assessed for 27 separate clinical signs:
Toxicity data obtained through the assay as described above is provided in Tables 1 to 14 for Compounds Gi to Gxiv inclusive. The animals were observed immediately following administration and again at 4 hours and 24 hours. Observations are reported using the code number from the following chart: […]

[1] = 40 mg/kg/day PO, male CD-1 mice

CN(C/C=C(/c1ccc(-c2ccsc2)cc1)c1cccs1)CC(=O)O [Compound G(ix), (Z)-N-(1-(4-(3-Thienyl)phenyl)-1-(2-thienyl)prop-1-en-3-yl)sarcosine]
Clinical signs (observation code), Day 1, 4 hours [1]: 0 | Clinical signs (observation code), Day 1, 24 hours [1]: 0 | Clinical signs (observation code), Day 2, 4 hours [1]: 0 | Clinical signs (observation code), Day 2, 24 hours [1]: 0 | Clinical signs (observation code), Day 3, 4 hours [1]: 0 | Clinical signs (observation code), Day 3, 24 hours [1]: 0 | Clinical signs (observation code), Day 4, 4 hours [1]: 0 | Clinical signs (observation code), Day 4, 24 hours [1]: 0 | Clinical signs (observation code), Day 5, 4 hours [1]: 0 | Clinical signs (observation code), Day 5, 24 hours [1]: 0

COc1cccc(-c2ccc(/C(=C/CN(C)CC(=O)O)c3cscc3C)cc2)c1 [Compound G(xii), (Z)-N-(1-(4-(3-Methoxyphenyl)phenyl)-1-(3-(4-methylthienyl))prop-1-en-3-yl)sarcosine]
Clinical signs (observation code), Day 1, 4 hours [1]: 0 | Clinical signs (observation code), Day 1, 24 hours [1]: 0 | Clinical signs (observation code), Day 2, 4 hours [1]: 0 | Clinical signs (observation code), Day 2, 24 hours [1]: 0 | Clinical signs (observation code), Day 3, 4 hours [1]: 0 | Clinical signs (observation code), Day 3, 24 hours [1]: 0 | Clinical signs (observation code), Day 4, 4 hours [1]: 0 | Clinical signs (observation code), Day 4, 24 hours [1]: 0 | Clinical signs (observation code), Day 5, 4 hours [1]: 0

Cc1cccc(-c2ccc(/C(=C/CN(C)CC(=O)O)c3sccc3C)cc2)c1 [Compound G(xiii), (Z)-N-(1-(4-(3-Methylphenyl)phenyl)-1-(2-(3-methylthienyl))prop-1-en-3-yl)sarcosine]
Clinical signs (observation code), Day 1, 4 hours [1]: 0 | Clinical signs (observation code), Day 1, 24 hours [1]: 0 | Clinical signs (observation code), Day 2, 4 hours [1]: 0 | Clinical signs (observation code), Day 2, 24 hours [1]: 0 | Clinical signs (observation code), Day 3, 4 hours [1]: 0 | Clinical signs (observation code), Day 3, 24 hours [1]: 0 | Clinical signs (observation code), Day 4, 4 hours [1]: 0 | Clinical signs (observation code), Day 4, 24 hours [1]: 0 | Clinical signs (observation code), Day 5, 4 hours [1]: 0

Cc1ccccc1/C(=C\CN(C)CC(=O)O)c1ccc(-c2ccsc2)cc1 [Compound G(xiv), (Z)-N-(1-(4-(3-Thienyl)phenyl)-1-(2-methylphenyl)prop-1-en-3-yl)sarcosine]
Clinical signs (observation code), Day 1, 4 hours [1]: 0 | Clinical signs (observation code), Day 1, 24 hours [1]: 0 | Clinical signs (observation code), Day 2, 4 hours [1]: 0 | Clinical signs (observation code), Day 2, 24 hours [1]: 0 | Clinical signs (observation code), Day 3, 4 hours [1]: 0 | Clinical signs (observation code), Day 3, 24 hours [1]: 0 | Clinical signs (observation code), Day 4, 4 hours [1]: 0 | Clinical signs (observation code), Day 4, 24 hours [1]: 0 | Clinical signs (observation code), Day 5, 4 hours [1]: 0 | Clinical signs (observation code), Day 5, 24 hours [1]: 0

Cc1cccc(-c2ccc(/C(=C/CN(C)CC(=O)O)c3ccsc3)cc2)c1 [Compound G(vi), (Z)-N-(1-(4-(3-Methylphenyl)phenyl)-1-(3-thienyl)prop-1-en-3-yl)sarcosine]
Clinical signs (observation code), Day 1, 4 hours [1]: 0 | Clinical signs (observation code), Day 1, 24 hours [1]: 0 | Clinical signs (observation code), Day 2, 4 hours [1]: 0 | Clinical signs (observation code), Day 2, 24 hours [1]: 0 | Clinical signs (observation code), Day 3, 4 hours [1]: 0 | Clinical signs (observation code), Day 3, 24 hours [1]: 0 | Clinical signs (observation code), Day 4, 4 hours [1]: 0 | Clinical signs (observation code), Day 4, 24 hours [1]: 0 | Clinical signs (observation code), Day 5, 4 hours [1]: 0 | Clinical signs (observation code), Day 5, 24 hours [1]: 0

CN(C/C=C(/c1ccc(-c2ccco2)cc1)c1ccsc1)CC(=O)O [Compound G(iv), (Z)-N-(1-(4-(2-Furyl)phenyl)-1-(3-thienyl)prop-1-en-3-yl)sarcosine]
Clinical signs (observation code), Day 1, 4 hours [1]: 0 and 14 | Clinical signs (observation code), Day 1, 24 hours [1]: 0 | Clinical signs (observation code), Day 2, 4 hours [1]: 0 | Clinical signs (observation code), Day 2, 24 hours [1]: 0 | Clinical signs (observation code), Day 3, 4 hours [1]: 14 (2×) and 0 | Clinical signs (observation code), Day 3, 24 hours [1]: 0 | Clinical signs (observation code), Day 4, 4 hours [1]: 0 | Clinical signs (observation code), Day 4, 24 hours [1]: 0 | Clinical signs (observation code), Day 5, 4 hours [1]: 0 (2×) and 14 | Clinical signs (observation code), Day 5, 24 hours [1]: 0

CN(C/C=C(/c1ccc(-c2cccc(C#N)c2)cc1)c1ccsc1)CC(=O)O [Compound G(viii), (Z)-N-(1-(4-(3-Cyanophenyl)phenyl)-1-(3-thienyl)prop-1-en-3-yl)sarcosine]
Clinical signs (observation code), Day 1, 4 hours [1]: 0 | Clinical signs (observation code), Day 1, 24 hours [1]: 0 | Clinical signs (observation code), Day 2, 4 hours [1]: 0 | Clinical signs (observation code), Day 2, 24 hours [1]: 0 | Clinical signs (observation code), Day 3, 4 hours [1]: 0 | Clinical signs (observation code), Day 3, 24 hours [1]: 0 | Clinical signs (observation code), Day 4, 4 hours [1]: 0 | Clinical signs (observation code), Day 4, 24 hours [1]: 0 | Clinical signs (observation code), Day 5, 4 hours [1]: 0 | Clinical signs (observation code), Day 5, 24 hours [1]: 0

Cc1cscc1/C(=C\CN(C)CC(=O)O)c1ccc(-c2ccsc2)cc1 [Compound G(x), (Z)-N-(1-(4-(3-Thienyl)phenyl)-1-(3-(4-methylthienyl))prop-1-en-3-yl)sarcosine]
Clinical signs (observation code), Day 1, 4 hours [1]: 0 | Clinical signs (observation code), Day 1, 24 hours [1]: 0 | Clinical signs (observation code), Day 2, 4 hours [1]: 0 | Clinical signs (observation code), Day 2, 24 hours [1]: 0 | Clinical signs (observation code), Day 3, 4 hours [1]: 0 | Clinical signs (observation code), Day 3, 24 hours [1]: 0 | Clinical signs (observation code), Day 4, 4 hours [1]: 0 | Clinical signs (observation code), Day 4, 24 hours [1]: 0 | Clinical signs (observation code), Day 5, 4 hours [1]: 0

Cc1cscc1/C(=C\CN(C)CC(=O)O)c1ccc(-c2cccc(C(F)(F)F)c2)cc1 [Compound G(xi), (Z)-N-(1-(4-(3-(Trifluoromethyl)phenyl)phenyl)-1-(3-(4-methylthienyl))prop-1-en-3-yl)sarcosine]
Clinical signs (observation code), Day 1, 4 hours [1]: 0 | Clinical signs (observation code), Day 1, 24 hours [1]: 0 | Clinical signs (observation code), Day 2, 4 hours [1]: 0 | Clinical signs (observation code), Day 2, 24 hours [1]: 0 | Clinical signs (observation code), Day 3, 4 hours [1]: 0 | Clinical signs (observation code), Day 3, 24 hours [1]: 0 | Clinical signs (observation code), Day 4, 4 hours [1]: 0 | Clinical signs (observation code), Day 4, 24 hours [1]: 0 | Clinical signs (observation code), Day 5, 4 hours [1]: 0

CN(C/C=C(\c1ccccc1)c1ccc(-c2ccccc2)cc1)CC(=O)O [Compound J, reference compound]
Toxicity profile in comparison (compounds of formula 1 vs other GlyT1 inhibitors of similar potency): higher toxicity profile | Clinical signs (observation code), Day 4, 4 hours (PO, mice): 0 | Clinical signs (observation code), Day 1, 4 hours (dose 10 (m↓kg) PO, mice): 0 | Clinical signs (observation code), Day 2, 4 hours (dose 10 (m↓kg) PO, mice): 0 | Clinical signs (observation code), Day 3, 4 hours (dose 10 (m↓kg) PO, mice): 0 | Clinical signs (observation code), Day 5, 4 hours (dose 10 (m↓kg) PO, mice): 0 | Clinical signs (observation code), Day 1, 24 hours (dose 25 (m↓kg) PO, mice): 0 | Clinical signs (observation code), Day 2, 24 hours (dose 25 (m↓kg) PO, mice): 0 and 2

CC(C)c1ccc(/C(=C/CN(C)CC(=O)O)c2ccsc2)cc1 [Compound H, reference compound]
Toxicity profile in comparison (compounds of formula 1 vs other GlyT1 inhibitors of similar potency): higher toxicity profile

CN(C/C=C(/c1ccc(-c2ccsc2)cc1)c1ccsc1)CC(=O)O [Compound G(ii), (Z)-N-(1-(4-(3-Thienyl)phenyl)-1-(3-thienyl)prop-1-en-3-yl)sarcosine]
Clinical signs (observation code), Day 1, 4 hours [1]: 0 | Clinical signs (observation code), Day 1, 24 hours [1]: 0 | Clinical signs (observation code), Day 2, 4 hours [1]: 0 (2×) and 1 | Clinical signs (observation code), Day 2, 24 hours [1]: 0 | Clinical signs (observation code), Day 3, 4 hours [1]: 0 | Clinical signs (observation code), Day 3, 24 hours [1]: 0 | Clinical signs (observation code), Day 4, 4 hours [1]: 0 | Clinical signs (observation code), Day 4, 24 hours [1]: 0 | Clinical signs (observation code), Day 5, 4 hours [1]: 0 and 14 | Clinical signs (observation code), Day 5, 24 hours [1]: 0
